Test results from EP0550016A1, “Novel quinolone carboxylic acid derivatives and processes for preparing same” (KOREA RESEARCH INSTITUTE OF CHEMICAL TECHNOLOGY, priority 1991, dated 1993).
≈ marks a conversion by molar mass, not a printed value. Where two headings read alike, the source gives them in different places.

Legend:
[1] = test system: Pseudomonas aeruginosa 9027; assay: In vitro anti-bacterial activity test (MIC, two-fold dilution method) against the standard strains; type: cell-based; details: Table 1 strain 12: Pseudomonas aeruginosa 9027
Escherichia coli DC 2 = assay: as above; type: cell-based; details: DC2; Table 1 strain 9: Escherichia coli DC 2; read-out: MIC
P. mirabilis = assay: Preventive effect against the systemic infection; type: in vivo; details: Proteus mirabilis, 168 h, NMRI mice, survival on day 7, read-out: ED₅₀
Procedure: (§1) 10 fold of the pathogen which leads to 100% lethality were injected intraperitoneally to male and female NMRI mice weighing 18 to 20g. Immediately and after 4 hours, the dose of test compounds which was determined by two-fold serial dilution method was administered orally or subcutaneously; and on day 7, the effectiveness was evaluated in terms of ED₅₀ calculated from the number of survived mice by the probit analysis.

S. aureus 17740 = assay: Preventive effect against the systemic infection; type: in vivo; details: Staphylococcus aureus, 168 h, NMRI mice, survival on day 7, read-out: ED₅₀
Procedure: as §1

Escherichia coli OTEM = assay: In vitro anti-bacterial activity test (MIC, two-fold dilution method) against the standard strains; type: cell-based; details: Table 1 strain 10: Escherichia coli OTEM
[2] = test system: Staphylococcus aureus 503; assay: as above; type: cell-based; details: Table 1 strain 6: Staphylococcus aureus 503; read-out: MIC
[3] = test system: Pseudomonas aeruginosa 1592 E; assay: as above; type: cell-based; details: Table 1 strain 13: Pseudomonas aeruginosa 1592 E
Escherichia coli 1507 E = assay: as above; type: cell-based; details: Table 1 strain 11: Escherichia coli 1507 E
Escherichia coli DC 0 [4] = assay: as above; type: cell-based; details: DC0; Table 1 strain 8: Escherichia coli DC 0
Escherichia coli DC 0 [5] = assay: as above; type: cell-based; details: DC0; Table 1 strain 7: Escherichia coli DC 0
[6] = test system: Staphylococcus aureus 285; assay: as above; type: cell-based; details: Table 1 strain 5: Staphylococcus aureus 285; read-out: MIC
[7] = test system: Streptococcus pyogenes 308 A; assay: as above; type: cell-based; details: Table 1 strain 1: Streptococcus pyogenes 308 A
[8] = test system: Streptococcus faecium MD 8b; assay: as above; type: cell-based; details: Enterococcus faecium, MD8B; Table 1 strain 3: Streptococcus faecium MD 8b; read-out: MIC
Acute Toxicity Test = details: mouse, in vivo, female ICR mice, day 14, read-out: Acute Toxicity(LD₅₀)
Procedure: Test compounds were administered to female ICR mice weighing 20 to 25g and on day 14, LD₅₀ was calculated from the number of survived mice by the probit analysis.

[9] = test system: Enterobacter cloacae P 99; assay: In vitro anti-bacterial activity test (MIC, two-fold dilution method) against the standard strains; type: cell-based; details: P99; Table 1 strain 19: Enterobacter cloacae P 99
Salmonella typhimurium = assay: as above; type: cell-based; details: Salmonella enterica; Table 1 strain 16: Salmonella typhimurium
[10] = test system: Staphylococcus aureus SG 511; assay: as above; type: cell-based; details: SG511; Table 1 strain 4: Staphylococcus aureus SG 511
[11] = test system: Streptococcus pyogenes 77 A; assay: as above; type: cell-based; details: Table 1 strain 2: Streptococcus pyogenes 77 A; read-out: MIC
[12] = test system: Enterobacter cloacae 1321 E; assay: as above; type: cell-based; details: Table 1 strain 20: Enterobacter cloacae 1321 E
[13] = test system: Klebsiella aerogenes 1082 E; assay: as above; type: cell-based; details: Table 1 strain 17: Klebsiella aerogenes 1082 E
[14] = test system: Pseudomonas aeruginosa 1771; assay: as above; type: cell-based; details: Table 1 strain 14: Pseudomonas aeruginosa 1771
[15] = test system: Pseudomonas aeruginosa 1771 M; assay: as above; type: cell-based; details: Table 1 strain 15: Pseudomonas aeruginosa 1771 M
[16] = test system: Klebsiella aerogenes 1522 E; assay: as above; type: cell-based; details: Table 1 strain 18: Klebsiella aerogenes 1522 E
[17] = test system: Staphylococcus aureus 208 E; assay: In vitro anti-bacterial activity test (MIC, two-fold dilution method), Table 2 strains; type: cell-based; details: Table 2 strain 3: Staphylococcus aureus 208 E; read-out: MIC
[18] = test system: Staphylococcus aureus 711 E; assay: as above; type: cell-based; details: Table 2 strain 17: Staphylococcus aureus 711 E; read-out: MIC
[19] = test system: Staphylococcus aureus 693 E; assay: as above; type: cell-based; details: Table 2 strain 7: Staphylococcus aureus 693 E; read-out: MIC
[20] = test system: Staphylococcus aureus 706 E; assay: as above; type: cell-based; details: Table 2 strain 14: Staphylococcus aureus 706 E; read-out: MIC
[21] = test system: Staphylococcus aureus 714 E; assay: as above; type: cell-based; details: Table 2 strain 18: Staphylococcus aureus 714 E; read-out: MIC
[22] = test system: Staphylococcus aureus 692 E; assay: as above; type: cell-based; details: Table 2 strain 6: Staphylococcus aureus 692 E
[23] = test system: Staphylococcus aureus 121 E; assay: as above; type: cell-based; details: Table 2 strain 2: Staphylococcus aureus 121 E; read-out: MIC
[24] = test system: Staphylococcus aureus 708 E; assay: as above; type: cell-based; details: Table 2 strain 16: Staphylococcus aureus 708 E
[25] = test system: Staphylococcus aureus 705 E; assay: as above; type: cell-based; details: Table 2 strain 13: Staphylococcus aureus 705 E; read-out: MIC
[26] = test system: Staphylococcus aureus 694 E; assay: as above; type: cell-based; details: Table 2 strain 8: Staphylococcus aureus 694 E; read-out: MIC
[27] = test system: Staphylococcus aureus 697 E; assay: as above; type: cell-based; details: Table 2 strain 10: Staphylococcus aureus 697 E
[28] = test system: Staphylococcus aureus 690 E; assay: as above; type: cell-based; details: Table 2 strain 5: Staphylococcus aureus 690 E; read-out: MIC
[29] = test system: Staphylococcus aureus 707 E; assay: as above; type: cell-based; details: Table 2 strain 15: Staphylococcus aureus 707 E; read-out: MIC
[30] = test system: Staphylococcus aureus 701 E; assay: as above; type: cell-based; details: Table 2 strain 11: Staphylococcus aureus 701 E; read-out: MIC
[31] = test system: Staphylococcus aureus 695 E; assay: as above; type: cell-based; details: Table 2 strain 9: Staphylococcus aureus 695 E; read-out: MIC
[32] = test system: Staphylococcus aureus 256 E; assay: as above; type: cell-based; details: Table 2 strain 4: Staphylococcus aureus 256 E
[33] = test system: Staphylococcus aureus 703 E; assay: as above; type: cell-based; details: Table 2 strain 12: Staphylococcus aureus 703 E; read-out: MIC
[34] = test system: Staphylococcus aureus 725 E; assay: as above; type: cell-based; details: Table 2 strain 19: Staphylococcus aureus 725 E; read-out: MIC
[35] = test system: Staphylococcus aureus 88 E; assay: as above; type: cell-based; details: Table 2 strain 1: Staphylococcus aureus 88 E

Compound	MIC [1] [µg/mL]	MIC (Escherichia coli DC 2) [µg/mL]	MIC (Escherichia coli OTEM) [µg/mL]	MIC [2] [µg/mL]	MIC [3] [µg/mL]	MIC (Escherichia coli 1507 E) [µg/mL]	MIC (Escherichia coli DC 0 [4]) [µg/mL]	MIC (Escherichia coli DC 0 [5]) [µg/mL]	MIC [6] [µg/mL]	MIC [7] [µg/mL]	MIC [8] [µg/mL]	MIC [9] [µg/mL]	MIC (Salmonella typhimurium) [µg/mL]	MIC [10] [µg/mL]	MIC [11] [µg/mL]	MIC [12] [µg/mL]	MIC [13] [µg/mL]	MIC [14] [µg/mL]	MIC [15] [µg/mL]	MIC [16] [µg/mL]	also measured
NC1CC12CCN(c1c(F)cc3c(=O)c(C(=O)O)cn(C4CC4)c3c1F)C2 (centres unmarked) [Example 1, 7-(1-amino-5-azaspiro[2,4]heptane-5-yl)-1-cyclopropyl-6,8-difluoro-1,4-dihydro-4-oxoquinoline-3-carboxylic acid]	0.781 (≈ 2.08 µM)	0.049 (≈ 0.131 µM)	0.013 (≈ 0.0346 µM)	0.025 (≈ 0.0666 µM)	0.391 (≈ 1.04 µM)	0.013 (≈ 0.0346 µM)	0.195 (≈ 0.519 µM)	0.004 (≈ 0.0107 µM)	0.025 (≈ 0.0666 µM)	0.195 (≈ 0.519 µM)	0.195 (≈ 0.519 µM)	0.013 (≈ 0.0346 µM)	0.013 (≈ 0.0346 µM)	0.025 (≈ 0.0666 µM)	0.098 (≈ 0.261 µM)	0.004 (≈ 0.0107 µM)	0.004 (≈ 0.0107 µM)	0.391 (≈ 1.04 µM)	0.195 (≈ 0.519 µM)	0.013 (≈ 0.0346 µM)	ED50 (P. mirabilis; Oral Administration): 7.13 mg/kg; ED50 (P. mirabilis; sc, Subcutaneous Injection): 1.36 mg/kg; ED50 (S. aureus 17740; Oral Administration): 128 mg/kg; ED50 (S. aureus 17740; sc, Subcutaneous Injection): 16.8 mg/kg; LD50 (Acute Toxicity Test; ip, Intraperitoneal Injection): 605 mg/kg; LD50 (Acute Toxicity Test; Oral Administration): 3800 mg/kg
CNC1CC12CCN(c1c(F)cc3c(=O)c(C(=O)O)cn(C4CC4)c3c1Cl)C2 (centres unmarked) [Example 9, 7-(1-methylamino-5-azaspiro[2,4]heptane-5-yl)-8-chloro-1-cyclopropyl-6-fluoro-1,4-dihydro-4-oxo-quinoline-3-carboxylic acid]	3.12 (≈ 7.7 µM)	0.098 (≈ 0.241 µM)	0.049 (≈ 0.121 µM)	0.049 (≈ 0.121 µM)	1.56 (≈ 3.85 µM)	0.098 (≈ 0.241 µM)	0.391 (≈ 0.963 µM)	0.025 (≈ 0.0616 µM)	0.049 (≈ 0.121 µM)	0.391 (≈ 0.963 µM)	0.195 (≈ 0.48 µM)	0.098 (≈ 0.241 µM)	0.049 (≈ 0.121 µM)	0.049 (≈ 0.121 µM)	0.195 (≈ 0.48 µM)	0.025 (≈ 0.0616 µM)	0.025 (≈ 0.0616 µM)	1.56 (≈ 3.85 µM)	0.781 (≈ 1.92 µM)	0.195 (≈ 0.48 µM)	MIC [17]: 0.098 µg/mL (≈ 0.241 µM); MIC [18]: 0.025 µg/mL (≈ 0.0616 µM); MIC [19]: 0.049 µg/mL (≈ 0.121 µM); MIC [20]: 0.098 µg/mL (≈ 0.241 µM); MIC [21]: 0.098 µg/mL (≈ 0.241 µM); MIC [22]: 0.049 µg/mL (≈ 0.121 µM); MIC [23]: 0.098 µg/mL (≈ 0.241 µM); MIC [24]: 0.025 µg/mL (≈ 0.0616 µM); MIC [25]: 0.098 µg/mL (≈ 0.241 µM); MIC [26]: 0.098 µg/mL (≈ 0.241 µM); MIC [27]: 0.049 µg/mL (≈ 0.121 µM); MIC [28]: 0.049 µg/mL (≈ 0.121 µM); MIC [29]: 0.098 µg/mL (≈ 0.241 µM); MIC [30]: 0.098 µg/mL (≈ 0.241 µM); MIC [31]: 0.049 µg/mL (≈ 0.121 µM); MIC [32]: 0.098 µg/mL (≈ 0.241 µM); MIC [33]: 0.098 µg/mL (≈ 0.241 µM); MIC [34]: 0.098 µg/mL (≈ 0.241 µM); MIC [35]: 0.195 µg/mL (≈ 0.48 µM)
